Tests used:
Type in all cases: in vivo, mouse
[1] = amelioration of leptin resistance (food intake and body weight after leptin) by β3 adrenergic receptor agonist in IR S-2 knockout mice; conditions: repeated intraperitoneal administration for 2 weeks, then leptin 20 mg/kg intraperitoneally, 12 hours after leptin, FIG. 4
Experimental: Moreover, as a control, for the case without intraperitoneal administration of leptin, in which 10 ml/kg of body weight of Tragacanth gum was repeatedly administered orally for 2 weeks, or in which 10 ml/kg of body weight of physiological saline solution was repeatedly intraperitoneally administered for 2 weeks instead of CL-316243, the changes in the amount of food intake, and the changes in body weight (%) were measured.

[2] = changes in body weight after continuous ventricular administration of leptin, IR S-2 knockout mice; conditions: continuous ventricular leptin 10 ng/hr, after one week, FIG. 2
Excerpt: (§1) Insulin receptor substrate-2 (IR S-2) knockout mice were produced according to Kubota N. et al., Diabetes, November 2000, 49(11), 1880-9. Then, the IR S-2 gene (shown in the upper portion of FIG. 5) was screened from the mouse genome DNA library, and a targeting vector indicated in the middle of FIG. 5 was produced. The targeting vector was introduced into the TT2 ES cell, and ES cell clone with a recombinant was selected (shown in the lower portion of FIG. 5), which was introduced into the 8-celled embryo, thereby obtaining a chimera organism. A male chimeric organism was bred with a C57BL/6J female, thereby obtaining hetero-IR S-2 knockout mice, in which a recombinant gene has been introduced into the germ line. These hetero-knockout mice were bred with each other, thereby obtaining homo-IR S-2 knockout mice.
(§2) In a case where a canula was implanted ventricuarly to a 14-week wild-type mouse, and after starting the continuous ventricular administration of leptin (10 ng/hr), followed by food intake at will, the changes in body weigh (%) were measured after one week of said leptin administration.

[3] = changes in body weight after intraperitoneal administration of leptin, IR S-2 knockout mice; conditions: 8-week IR S-2 knockout mice, 12 hours after administration, FIG. 1
Excerpt: as §1, with “A male chimeric organism was bred with a C57BL/6J female, thereby obtaining hetero-IR S-2 knockout mice, in which a recombinant gene has been introduced into the germ line. These hetero-knockout mice were bred with each other, thereby obtaining homo-IR S-2 knockout mice.” left out
For the case where 10 mg/kg of body weight of leptin was intraperitoneally administered into the 8-week wild-type mouse, followed by food intake, the changes in body weight (%) after 12 hours of administration of leptin were measured. Moreover, (i) for the case where 10 mg/kg of body weight or 50 mg/kg of body weight of leptin was intraperitoneally administered into the 8-week IR S-2 knockout mouse, followed by food intake, the changes in body weight (%) after 12 hours of administration of leptin were measured. Furthermore, as a control, for the case where physiological saline was administered instead of leptin to the 8-week wild-type and IR S-2 knockout mice, the changes in body weight (%) were measured. […] The statistical significances of the differences in body weight, etc. were determined by Student's t test (two-tailed).

[4] = changes in body weight after continuous ventricular administration of leptin, wild-type mice; conditions: 14-week wild-type mice; continuous ventricular leptin 10 ng/hr; after one week; FIG. 2
Experimental: as §2

[5] = changes in body weight after intraperitoneal administration of leptin, wild-type mice; conditions: 8-week wild-type mice; leptin 10 mg/kg of body weight intraperitoneally; 12 hours after administration; FIG. 1
Experimental: For the case where 10 mg/kg of body weight of leptin was intraperitoneally administered into the 8-week wild-type mouse, followed by food intake, the changes in body weight (%) after 12 hours of administration of leptin were measured. Moreover, (i) for the case where 10 mg/kg of body weight or 50 mg/kg of body weight of leptin was intraperitoneally administered into the 8-week IR S-2 knockout mouse, followed by food intake, the changes in body weight (%) after 12 hours of administration of leptin were measured. Furthermore, as a control, for the case where physiological saline was administered instead of leptin to the 8-week wild-type and IR S-2 knockout mice, the changes in body weight (%) were measured. In FIG. 1, (a) is a result for the case in which the physiological saline was administered; (b) is a result for the case in which […] of body weight of leptin was intraperitoneally administered; and (c) is a result for the case in which […] of body weight of leptin was intraperitoneally administered. In FIG. 1, as well as in other figures, the values are expressed as means±S.E. (n=5−9); **, p<0.01; ***, p<0.001; and “N.S.” not significant. The statistical significances of the differences in body weight, etc. were determined by Student's t test (two-tailed).

Molecule: CC(Cc1ccc2c(c1)OC(C(=O)[O-])(C(=O)[O-])O2)NCC(O)c1cccc(Cl)c1.[Na+].[Na+] (stereo not drawn) [CL-316243]
- leptin resistance (changes in food intake (%) and body weight (%) after leptin) [1]: leptin resistance in IR S-2 knockout mice is ameliorated

Molecule: leptin: hormone secreted from adipose tissues, regulates appetite and energy metabolism
- changes in body weight (%) [2]: significant reduction in weight was not observed
- changes in body weight (%) ([3]; leptin 10 mg/kg of body weight intraperitoneally): significant reduction in weight was not observed
- changes in body weight (%) ([3]; leptin 50 mg/kg of body weight intraperitoneally): significant reduction in weight was not observed
- changes in body weight (%) [4]: significant reduction in weight was observed
- changes in body weight (%) [5]: significant reduction in weight was observed

— patent US20040242485A1, “Compositions and methods for the amelioration of leptin resistance” (priority 2003, published 2004)
